≈ marks a conversion by molar mass, not a printed value. Like-named read-outs stand apart in the source and are kept apart here.
How the values were obtained:
[1] = Cellular toxicity, minimal toxic dose that inhibits all growth, A549; type: cell-based; conditions: human, a549 cells
Description: (§1) The cytotoxic activities for the compounds of Examples 1 and 2, amantadine and ribavirin were determined in five different cell lines.

[2] = system: respiratory syncytial virus RSVA2 (subgroup A); experiment: Anti-RSV activity (RSVA2) in HEp-2 cells, crystal violet staining of cytopathic effect; type: cell-based; conditions: for EC50 / IC50: human respiratory syncytial virus; for EC50: read-out: Anti-RSVA2 ED50; for activity against subgroup A (RSVA2): in words
[3] = Cellular toxicity, minimal toxic dose that inhibits all growth, MDCK; type: cell-based, Canine; conditions: dog
Description: as §1

[4] = Cellular toxicity, minimal toxic dose that inhibits all growth, MRC-5; type: cell-based; conditions: human, mrc-5 cells
Description: as §1

[5] = Cellular toxicity, minimal toxic dose that inhibits all growth, Vero; type: cell-based; conditions: monkey, vero cells
Description: as §1

[6] = Cellular toxicity (TD50) in the anti-RSV test; conditions: human, hep-2 cells
[7] = Cellular toxicity, minimal toxic dose that inhibits all growth, HEp-2; type: cell-based; conditions: human, hep-2 cells
Description: as §1

[8] = system: respiratory syncytial virus RSV-9320 (subgroup B); experiment: Anti-RSV activity (RSV-9320) in HEp-2 cells; type: cell-based; conditions: for IC50: human respiratory syncytial virus; for activity against subgroup B (RSV-9320): in words
[9] = in vitro; conditions: human, hep-2 cells
[10] = system: FluA/WSN; experiment: Anti-flu activity against FluA/WSN in MDCK cells; type: cell-based, influenza A virus
[11] = Solubility at 100 μg/ml (footnote of Table 4); type: physicochemical; conditions: footnote a of Table 4
[12] = Table 4, A549, read-out: Minimal Toxic Dose that Inhibits All Growth, A549
[13] = Table 4, MDCK, read-out: Minimal Toxic Dose that Inhibits All Growth, MDCK
[14] = Table 4, MRC-5, read-out: Minimal Toxic Dose that Inhibits All Growth, MRC-5
[15] = Table 4, Vero, read-out: Minimal Toxic Dose that Inhibits All Growth, Vero
[16] = Table 4, HEp-2, read-out: Minimal Toxic Dose that Inhibits All Growth, HEp-2
[17] = HEp-2, read-out: Median Inhibitory Concentration (IC50), RSV-9320
[18] = 72 h, Table 2, HEp-2 cells, compound added 2 h before infection, 3 days
[19] = Table 3, HEp-2 cells, read-out: Median Inhibitory Concentration (IC50), RSVA2
[20] = Table 3, HEp-2 cells, read-out: Median Inhibitory Concentration (IC50), RSV-9320

NC12CC3CC(CC(C3)C1)C2 [Amantadine, amantadine, reference compound]
MCC [1, 12]: > 100 µg/mL | EC50 ([2]; HEp-2, 72 h): 50 µg/mL (≈ 331 µM) | MCC [3, 13]: > 100 µg/mL | MCC [4, 14]: 100 µg/mL | MCC [5, 15]: 100 µg/mL | CC50 at 72 h [6]: 100 µg/mL (≈ 661 µM) | MCC [7, 16]: 100 µg/mL | IC50 [8, 17]: 16 µg/mL (≈ 106 µM)

Cc1nc(=O)c(C#N)c(NCCc2cccnc2)[nH]1 [Compound 1]
MCC [1]: > 100 µg/mL | activity against subgroup A (RSVA2) ([2]; HEp-2 cells): active | EC50 [2, 18]: 0.05 µg/mL (≈ 0.196 µM) | IC50 [2, 19]: ≤ 0.16 µg/mL | MCC ([3]; mdck): > 100 µg/mL | CC50 at 72 h [9]: > 16 µg/mL | MCC [4]: 100 µg/mL | MCC [5]: > 100 µg/mL | anti-flu activity against FluA/WSN [10]: inactive | MCC [7]: > 100 µg/mL | activity against subgroup B (RSV-9320) ([8]; HEp-2 cells): active | IC50 [8, 20]: ≤ 0.16 µg/mL

Cc1nc(=O)c(Br)c(NCc2cncc(C#N)c2)[nH]1 [Compound 2]
MCC [1]: > 50 µg/mL | activity against subgroup A (RSVA2) ([2]; HEp-2 cells): active | EC50 [2, 18]: 0.05 µg/mL (≈ 0.156 µM) | IC50 [2, 19]: ≤ 0.16 µg/mL | MCC ([3]; mdck): > 50 µg/mL | CC50 at 72 h [9]: > 16 µg/mL | MCC [4]: > 50 µg/mL | MCC [5]: > 50 µg/mL | anti-flu activity against FluA/WSN [10]: inactive | MCC [7]: 50 µg/mL | activity against subgroup B (RSV-9320) ([8]; HEp-2 cells): active | IC50 [8, 20]: ≤ 0.16 µg/mL | solubility at 100 μg/ml [11]: Not completely soluble

CC(C)(C)c1nc(O)c(C#N)c(NCc2cccnc2)n1 [Compound 3]
EC50 [2, 18]: 1.6 to 5 µg/mL (≈ 5.65 to 17.6 µM) | CC50 at 72 h [9]: > 16 µg/mL

Cc1nc(O)c(C#N)c(NCCc2ccncc2)n1 [Compound 4]
EC50 [2, 18]: 0.16 µg/mL (≈ 0.627 µM) | CC50 at 72 h [9]: > 16 µg/mL

Cc1nc(=O)c(C#N)c(NCc2ccccc2)[nH]1 [Compound 5]
EC50 [2, 18]: 1.6 µg/mL (≈ 6.66 µM) | CC50 at 72 h [9]: > 16 µg/mL

Cc1nc(=O)c(C#N)c(NCCN(C)C)[nH]1 [Compound 6]
EC50 [2, 18]: 5 µg/mL (≈ 22.6 µM) | CC50 at 72 h [9]: > 16 µg/mL

Cc1nc(=O)c(C#N)c(NCCN2CCCC2)[nH]1 [Compound 7]
EC50 [2, 18]: 1.6 µg/mL (≈ 6.47 µM) | CC50 at 72 h [9]: 16 µg/mL (≈ 64.7 µM)

Cc1nc(=O)c(Br)c(NCCc2cccnc2)[nH]1 [Compound 8]
EC50 [2, 18]: 0.005 µg/mL (≈ 0.0162 µM) | CC50 at 72 h [9]: > 16 µg/mL

CCCN(CCC)CCNc1[nH]c(C)nc(=O)c1Br [Compound 9]
EC50 [2, 18]: 1.6 µg/mL (≈ 4.83 µM) | CC50 at 72 h [9]: > 16 µg/mL

Cc1nc(=O)c(Br)c(NCc2ccc3c(c2)OCO3)[nH]1 [Compound 10]
EC50 [2, 18]: 0.05 µg/mL (≈ 0.148 µM) | CC50 at 72 h [9]: > 16 µg/mL

Cc1nc(=O)c(Br)c(NCc2ccsc2)[nH]1 [Compound 11]
EC50 [2, 18]: 0.5 µg/mL (≈ 1.67 µM) | CC50 at 72 h [9]: > 16 µg/mL

C=CCOc1ccc(CCNc2[nH]c(C)nc(=O)c2Br)cc1OC [Compound 12]
EC50 [2, 18]: 0.5 µg/mL (≈ 1.27 µM) | CC50 at 72 h [9]: > 16 µg/mL

Cc1nc(=O)c(Cl)c(NCc2cncc(Br)c2)[nH]1 [Compound 13]
EC50 [2, 18]: 0.016 µg/mL (≈ 0.0485 µM) | CC50 at 72 h [9]: > 16 µg/mL

COc1ccc(Br)cc1CCNc1[nH]c(C)nc(=O)c1Br [Compound 14]
EC50 [2, 18]: 0.5 µg/mL (≈ 1.2 µM) | CC50 at 72 h [9]: > 16 µg/mL

Cc1nc(=O)c(F)c(NCc2cccnc2)[nH]1 [Compound 15]
EC50 [2, 18]: 0.05 µg/mL (≈ 0.213 µM) | CC50 at 72 h [9]: > 16 µg/mL

Cc1nc(=O)c(Br)c(NCCN(C)C)[nH]1 [Compound 16]
EC50 [2, 18]: 0.16 µg/mL (≈ 0.582 µM) | CC50 at 72 h [9]: > 16 µg/mL

Cc1nc(NCc2cncc(Br)c2)c(Br)c(=O)[nH]1 [Compound 17]
EC50 [2, 18]: 0.016 µg/mL (≈ 0.0428 µM) | CC50 at 72 h [9]: > 16 µg/mL

NC(=O)c1ncn([C@@H]2O[C@H](CO)[C@@H](O)[C@H]2O)n1 [Ribavirin, ribavirin, reference compound]
MCC [1, 12]: 100 µg/mL | EC50 ([2]; HEp-2, 72 h): 1.6 to 5 µg/mL (≈ 6.55 to 20.5 µM) | IC50 ([2]; HEp-2, read-out: Median Inhibitory Concentration (IC50), RSVA2): 1.6 to 5 µg/mL (≈ 6.55 to 20.5 µM) | MCC [3, 13]: 100 µg/mL | MCC [4, 14]: 100 µg/mL | MCC [5, 15]: 100 µg/mL | CC50 at 72 h [6]: 50 µg/mL (≈ 205 µM) | MCC [7, 16]: 50 µg/mL | IC50 [8, 17]: 5 µg/mL (≈ 20.5 µM)
